According to patent US9512107B2, “Therapeutically active compositions and their methods of use” (Agios Pharmaceuticals, Inc., priority 2012, dated 2016):

Legend:
[1] = test system: U87MG pLVX-IDH2 R140Q-neo cells; test: U87MG pLVX-IDH2 R140Q-neo cell based assay, 2-HG in media by LC-MS at 48 hours; details: for IC50: Homo sapiens, U-87 MG
Procedure, shortened: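 2-HG secreted into the medium was measured by LC-MS after 48 h of compound treatment (0.2% DMSO final) of U87MG pLVX-IDH2 R140Q-neo cells in DMEM/10% FBS. The same wells were assayed at 72 h by CellTiter-Glo luminescence for effects on growth.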

IDH2 R140Q = molecular target: T1, IDH2 R140Q (Homo sapiens, UniProt P48735, R140Q); test: IDH2 R140Q enzymatic assay (cofactor depletion, similar format); assay type: biochemical; details: read-out: Enz R140Q
T1 sequence (P48735 40-452 R140Q): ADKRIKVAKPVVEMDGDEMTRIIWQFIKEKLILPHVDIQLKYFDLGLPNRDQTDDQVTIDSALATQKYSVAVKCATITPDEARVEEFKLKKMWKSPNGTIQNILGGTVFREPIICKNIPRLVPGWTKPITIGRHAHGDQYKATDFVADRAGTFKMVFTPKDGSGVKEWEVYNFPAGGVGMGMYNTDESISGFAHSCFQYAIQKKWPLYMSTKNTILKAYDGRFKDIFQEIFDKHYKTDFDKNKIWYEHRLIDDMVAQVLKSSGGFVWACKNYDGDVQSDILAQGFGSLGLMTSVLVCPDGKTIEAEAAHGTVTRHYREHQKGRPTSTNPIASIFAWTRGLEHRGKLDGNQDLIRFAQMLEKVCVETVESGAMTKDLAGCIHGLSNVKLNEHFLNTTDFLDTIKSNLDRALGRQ

IC50 [1]	IC50 (IDH2 R140Q)	SMILES	Cell R140Q [1]
0.1 to 1 µM	< 0.1 µM	CC(C)Nc1nc(Nc2ccnc(N3CCC3)c2)nc(-c2ccccc2)n1 [Compound 299, N^2-(2-(azetidin-1-yl)pyridin-4-yl)-N^4-isopropyl-6-phenyl-1,3,5-triazine-2,4-diamine]	
< 0.1 µM	< 0.1 µM	Fc1cncc(Nc2nc(NC3CCC3)nc(-c3ccccc3F)n2)c1 [Compound 318, N-Cyclobutyl-6-(2-fluoro-phenyl)-N′-(5-fluoro-pyridin-3-yl)-[1,3,5]triazine-2,4-diamine]	
< 0.1 µM	0.1 to 1 µM	CC(C)Nc1nc(Nc2ccnc(Cl)c2)nc(-c2cccc(Cl)n2)n1 [Compound 354, 6-(6-chloropyridin-2-yl)-N^2-(2-chloropyridin-4-yl)-N^4-isopropyl-1,3,5-triazine-2,4-diamine]	
< 0.1 µM	0.1 to 1 µM	Fc1cc(Nc2nc(NCC3CCCO3)nc(-c3cccc(C(F)(F)F)n3)n2)ccn1 (stereo not drawn) [Compound 402, N^2-(2-fluoropyridin-4-yl)-N^4-((tetrahydrofuran-2-yl)methyl)-6-(6-(trifluoromethyl)pyridin-2-yl)-1,3,5-triazine-2,4-diamine]	
0.1 to 1 µM	< 0.1 µM	CC(C)Nc1nc(Nc2ccc(Cl)nc2)nc(-c2ccccc2)n1 [Compound 289, N^2-(6-chloropyridin-3-yl)-N^4-isopropyl-6-phenyl-1,3,5-triazine-2,4-diamine]	
< 0.1 µM	< 0.1 µM	CC(C)Nc1nc(Nc2ccnc(N3CCOCC3)c2)nc(-c2ccccc2)n1 [Compound 298, N^2-isopropyl-N^4-(2-morpholinopyridin-4-yl)-6-phenyl-1,3,5-triazine-2,4-diamine]	
< 0.1 µM	1 to 10 µM	CC(O)CNc1nc(Nc2ccnc(C(F)(F)F)c2)nc(-c2cccc(Cl)n2)n1 (stereo not drawn) [Compound 389, 1-(4-(6-chloropyridin-2-yl)-6-(2-(trifluoromethyl)pyridin-4-ylamino)-1,3,5-triazin-2-ylamino)propan-2-ol]	
< 0.1 µM	0.1 to 1 µM	CC(C)Nc1nc(Nc2ccnc(C(F)(F)F)c2)nc(-c2cccc(Cl)n2)n1 [Compound 396, 6-(6-chloropyridin-2-yl)-N^2-isopropyl-N4-(2-(trifluoromethyl)pyridin-4-yl)-1,3,5-triazine-2,4-diamine]	
< 0.1 µM	0.1 to 1 µM	CC(C)(O)CNc1nc(Nc2cncc(C(F)(F)F)c2)nc(-c2ccccc2F)n1 [Compound 392, 1-(4-(2-fluorophenyl)-6-(5-(trifluoromethyl)pyridin-3-ylamino)-1,3,5-triazin-2-ylamino)-2-methylpropan-2-ol]	
< 0.1 µM	1 to 10 µM	Fc1cncc(Nc2nc(NC3C4COCC43)nc(-c3cccc(C(F)(F)F)n3)n2)c1 (stereo not drawn) [Compound 411, N^2-(3-oxabicyclo[3.1.0]hexan-6-yl)-N^4-(5-fluoropyridin-3-yl)-6-(6-(trifluoromethyl)pyridin-2-yl)-1,3,5-triazine-2,4-diamine]	
< 0.1 µM	0.1 to 1 µM	Clc1cncc(Nc2nc(NC3CCC3)nc(-c3ccccn3)n2)c1 [Compound 330, N^2-(5-chloropyridin-3-yl)-N^4-cyclobutyl-6-(pyridin-2-yl)-1,3,5-triazine-2,4-diamine]	
< 0.1 µM	0.1 to 1 µM	CC(C)(O)CNc1nc(Nc2cncc(C(F)(F)F)c2)nc(-c2cccc(C(F)(F)F)n2)n1 [Compound 406, 2-methyl-1-(4-(6-(trifluoromethyl)pyridin-2-yl)-6-(5-(trifluoromethyl)pyridin-3-ylamino)-1,3,5-triazin-2-ylamino)propan-2-ol]	
< 0.1 µM	0.1 to 1 µM	CC(C)Nc1nc(Nc2cccc(S(C)(=O)=O)c2)nc(-c2cccc(C(F)F)n2)n1 [Compound 366, 6-(6-(difluoromethyl)pyridin-2-yl)-N^2-isopropyl-N^4-(3-(methylsulfonyl)phenyl)-1,3,5-triazine-2,4-diamine]	
0.1 to 1 µM	0.1 to 1 µM	CC(C)Nc1nc(Nc2ccncc2)nc(-c2cccc(N)c2)n1 [Compound 327]	
< 0.1 µM	< 0.1 µM	CC(C)Nc1nc(Nc2cncc(C#N)c2)nc(-c2ccccc2F)n1 [Compound 321, 5-(4-(2-fluorophenyl)-6-(isopropylamino)-1,3,5-triazin-2-ylamino)nicotinonitrile]	
0.1 to 1 µM	< 0.1 µM	COC(=O)c1cc(Nc2nc(NC(C)C)nc(-c3ccccc3)n2)ccn1 [Compound 346]	
< 0.1 µM	0.1 to 1 µM	CC(C)Nc1nc(Nc2cncnc2)nc(-c2cccc(Cl)n2)n1 [Compound 353, 6-(6-chloropyridin-2-yl)-N^2-isopropyl-N^4-(pyrimidin-5-yl)-1,3,5-triazine-2,4-diamine]	

IC50 [1]	IC50 (IDH2 R140Q)	SMILES	Cell R140Q [1]
	1 to 10 µM	CC(C)Nc1nc(Nc2ccncc2C(F)(F)F)nc(-c2ccccc2)n1 [Compound 314, N^2-isopropyl-6-phenyl-N^4-(3-(trifluoromethyl)pyridin-4-yl)-1,3,5-triazine-2,4-diamine]	No Fit
< 0.1 µM	< 0.1 µM	CC(C)Nc1nc(Nc2ccc(F)nc2)nc(-c2ccccc2F)n1 [Compound 387, 6-(2-fluorophenyl)-N^2-(6-fluoropyridin-3-yl)-N^4-isopropyl-1,3,5-triazine-2,4-diamine]	
< 0.1 µM	< 0.1 µM	CC(C)Nc1nc(Nc2ccnc(C#N)c2)nc(-c2ccccc2F)n1 [Compound 369, 4-(4-(2-fluorophenyl)-6-(isopropylamino)-1,3,5-triazin-2-ylamino)picolinonitrile]	
< 0.1 µM	< 0.1 µM	O[C@H]1CCC[C@H]1Nc1nc(Nc2ccccc2)nc(-c2ccccc2)n1 [Compound 352, (1S,2R)-2-(4-phenyl-6-(phenylamino)-1,3,5-triazin-2-ylamino)cyclopentanol]	
< 0.1 µM	0.1 to 1 µM	CC(C)Nc1nc(Nc2cccc(S(=O)(=O)N3CCC3)c2)nc(-c2ccccc2)n1 [Compound 376, N^2-(3-(azetidin-1-ylsulfonyl)phenyl)-N^4-isopropyl-6-phenyl-1,3,5-triazine-2,4-diamine]	
< 0.1 µM	< 0.1 µM	CC(C)Nc1nc(Nc2cnoc2)nc(-c2ccccc2)n1 [Compound 309, N^2-isopropyl-N^4-(isoxazol-4-yl)-6-phenyl-1,3,5-triazine-2,4-diamine]	
< 0.1 µM	0.1 to 1 µM	Fc1cncc(Nc2nc(NC3CCC3)nc(-c3ccccn3)n2)c1 [Compound 322, N^2-cyclobutyl-N^4-(5-fluoropyridin-3-yl)-6-(pyridin-2-yl)-1,3,5-triazine-2,4-diamine]	
< 0.1 µM	0.1 to 1 µM	Cc1cc(Nc2nc(NC(C)C)nc(-c3ccccc3)n2)cc(C)n1 [Compound 310, N^2-(2,6-dimethylpyridin-4-yl)-N^4-isopropyl-6-phenyl-1,3,5-triazine-2,4-diamine]	
< 0.1 µM	0.1 to 1 µM	Fc1cncc(Nc2nc(NC3COC3)nc(-c3cccc(C(F)(F)F)n3)n2)c1 [Compound 381, N^2-(5-fluoropyridin-3-yl)-N^4-(oxetan-3-yl)-6-(6-(trifluoromethyl)pyridin-2-yl)-1,3,5-triazine-2,4-diamine]	
1 to 10 µM	0.1 to 1 µM	CC(C)Nc1nc(Nc2cccc(S(C)(=O)=O)c2)nc(-c2cc(F)cc(C(F)(F)F)c2)n1 [Compound 660, 6-(3-fluoro-5-(trifluoromethyl)phenyl)-N2-isopropyl-N4-(3-(methylsulfonyl)phenyl)-1,3,5-triazine-2,4-diamine]	
0.1 to 1 µM	0.1 to 1 µM	CC(C)(O)CNc1nc(Nc2cncc(F)c2)nc(-c2cccc(C(F)(F)F)n2)n1 [Compound 407, 1-(4-(5-fluoropyridin-3-ylamino)-6-(6-(trifluoromethyl)pyridin-2-yl)-1,3,5-triazin-2-ylamino)-2-methylpropan-2-ol]	
< 0.1 µM	< 0.1 µM	CC(C)Nc1nc(Nc2cncc(C(F)(F)F)c2)nc(-c2ccccc2)n1 [Compound 329, N^2-isopropyl-6-phenyl-N^4-(5-(trifluoromethyl)pyridin-3-yl)-1,3,5-triazine-2,4-diamine]	
0.1 to 1 µM	< 0.1 µM	CC[S+]([O-])c1cccc(Nc2nc(NC(C)C)nc(-c3ccccc3)n2)c1 (stereo not drawn) [Compound 277, N^2-(3-(ethylsulfinyl)phenyl)-N^4-isopropyl-6-phenyl-1,3,5-triazine-2,4-diamine]	
0.1 to 1 µM	0.1 to 1 µM	Fc1ccc(Nc2nc(NC3COC3)nc(-c3cccc(C(F)(F)F)n3)n2)cn1 [Compound 380, N^2-(6-fluoropyridin-3-yl)-N^4-(oxetan-3-yl)-6-(6-(trifluoromethyl)pyridin-2-yl)-1,3,5-triazine-2,4-diamine]	
0.1 to 1 µM	1 to 10 µM	CC(C)(O)CNc1nc(Nc2ccc(F)nc2)nc(-c2cccc(C(F)(F)F)n2)n1 [Compound 385, 1-(4-(6-fluoropyridin-3-ylamino)-6-(6-(trifluoromethyl)pyridin-2-yl)-1,3,5-triazin-2-ylamino)-2-methylpropan-2-ol]	
< 0.1 µM	< 0.1 µM	CS(=O)(=O)c1cccc(Nc2nc(NC3CCC3)nc(-c3ccccc3F)n2)c1 [Compound 317, N^2-cyclobutyl-6-(2-fluorophenyl)-N^4-(3-(methylsulfonyl)phenyl)-1,3,5-triazine-2,4-diamine]	
